From patent publication US20160047748A1, “FLUORESCENT PROBE” (THE UNIVERSITY OF TOKYO, priority 2013, published 2016) come the findings set out here.

The test system of series [1] is HeLa cells. The experiment in a line: Ca^2+-imaging of living cells. It counts as cell-based. On the procedure: Ca^2+-imaging of living cells was carried out using CaTM-3-AM. In order to study the utility thereof, a comparison was made with CaTM-2-AM(N-[2-[(acetyloxy)]-2-oxoethyl]amino]-N-[2-[2-[2-[bis[2-[(acetyloxy)methoxy]-2-oxoethyl]amino]-5-[[4-(1,8-dichloro-2,9-dihydro-7-hydroxy-9,9-dimethyl-2-oxo-9-silaanthracen-10-yl)-3-methylbenzoyl]amino]phenoxy]ethoxy]phenyl]-glycine(acetyloxy)methyl ester), which has a methyl group at position 2 of the benzene ring instead of a carboxy group. HeLa cells were incubated for 30 minutes at 37° C. together with 3 μM of CaTM-2-AM or CaTM-3-AM in a Hank's balanced salt solution (HBSS) containing 0.03% DMSO. The cells were washed three times using HBSS, then HBSS was added and the cells were observed using a confocal microscope SP5 (Leica) with an excitation wavelength of 590 nm and a fluorescence wavelength of 610 to 680 nm.
Ca^2+ imaging was carried out during stimulation by histamine and ionomycin using cells to which CaTM-3-AM had been added. Histamine hydrochloride (1 μM) was added after 1 minute from the beginning of observation, and ionomycin (5 μM) was added after 4 minutes from the beginning of observation.

Series [2] can be described thus: physchem. The class given is physicochemical. On the procedure:
The optical characteristics, absorbance spectra, and fluorescence spectra of the resulting ZnTM-1 depending on pHs are shown in FIG. 1. The pH-induced changes were measured using ZnTM-1 (1 μM) in a buffer of 0.1M sodium phosphate containing 15% DMSO. pKa was determined by biphasic fitting using the absorbance at the absorbance maximum wavelength. EDTA (100 μM) was added in order to eliminate the effect of trace metal ions during the measurement of quantum yield when Zn^2+ had not been added, and then measurement was carried out.

Series [3] can be described thus: Optical characteristics, Zn^2+ addition experiment. The class given is physicochemical. The note with it: for Φf1: fluorescence quantum yield. How it is done:
The optical characteristics, absorbance spectra, and fluorescence spectra of the resulting ZnTM-1 depending on pHs are shown in FIG. 1. The Zn^2+ addition experiment was carried out by adding ZnSO4 to a solution obtained by adding ZnTM-1 (1 μM) in a buffer of 0.1M HEPES (pH 7.4) containing 15% DMSO. pKa was determined by biphasic fitting using the absorbance at the absorbance maximum wavelength. EDTA (100 μM) was added in order to eliminate the effect of trace metal ions during the measurement of quantum yield when Zn^2+ had not been added, and then measurement was carried out.

Series [4] relates to HeLa cells. Briefly: Cell imaging using ZnTM-1. The class given is cell-based. The note with it: 10 μM, 30 min at 37° C., HBSS 1% DMSO, ZnSO4 (50 μM)/pyrithione (5 μM), then TPEN (100 μM). How it is done: Cell imaging was carried out using ZnTM-1. HeLa cells were incubated for 30 minutes at 37° C. together with 10 μM of ZnTM-1 in a Hank's balanced salt solution (HBSS) containing 1% DMSO. The mixture was washed once using HBSS, then HBSS was added and the cells were observed using an epifluorescence microscope IX-71 (Olympus) with an excitation wavelength of 565 to 585 nm and a fluorescence wavelength of 600 to 690 nm. The observation was carried out in every 30 seconds, ZnSO4 (50 μM) and pyrithione (5 μM), which is an ionophore, were added after 2 minutes and 30 seconds from the beginning of observation, and TPEN (100 μM), which is a cell-membrane-permeating zinc chelator, was added after 6 minutes from the beginning of observation.

[5] abbreviates: ZnTM-1 1 μM, 0.1M HEPES (pH 7.4) containing 15% DMSO, Zn^2+ not added.

For the compound `CC(=O)OCOC(=O)CN(CC(=O)OCOC(C)=O)c1ccccc1OCCOc1cc(NC(=O)c2ccc(C3=C4C=CC(=O)C(Cl)=C4[Si](C)(C)c4c3ccc(O)c4Cl)c(C(=O)O)c2)ccc1N(CC(=O)OCOC(C)=O)CC(=O)OCOC(C)=O` [CaTM-3-AM, 5-[[[4-[bis[2-[(acetyloxy)methoxy]-2-oxoethyl]amino]-5-[2-[2-[bis[2-[(acetyloxy)methoxy]-2-oxoethyl]amino]phenoxy]ethoxy]-phenyl]amino]carbonyl]-2-(1,8-dichloro-2,9-dihydro-7-hydroxy-9,9-dimethyl-2-oxo-9-silaanthracen-10-yl)-benzoic acid], the “Brightness of fluorescence image” value in series [1] (HeLa cells, 3 μM, 30 min at 37° C., HBSS 0.03% DMSO, excitation 590 nm, fluorescence 610 to 680 nm) is listed as “brighter fluorescence image than does CaTM-2-AM”. The “Quantity of fluorescent probe taken into cells” value in series [1] (HeLa cells, 3 μM, 30 min at 37° C., compared with CaTM-2-AM) was “a larger quantity of fluorescent probes is taken into cells”. Further, the “Detection of variation in intracellular Ca^2+ during stimulation” value in series [1] (histamine hydrochloride (1 μM) after 1 minute, ionomycin (5 μM) after 4 minutes) is “can be accurately ascertained”.

For `C[Si]1(C)C2=C(F)C(=O)C=CC2=C(c2ccc(C(=O)Nc3ccc(NCCN(Cc4ccccn4)Cc4ccccn4)cc3)cc2C(=O)O)c2ccc(O)c(F)c21` [ZnTM-1, 5-[[[4-[[2-[bis(2-pyridinylmethyl)amino]ethyl]amino]phenyl]amino]carbonyl]-2-(1,8-difluoro-2,9-dihydro-7-hydroxy-9,9-dimethyl-2-oxo-9-silaanthracen-10-yl)benzoic acid], in series [2], the pKa was 7.2. In addition, the “λabs (nm)” value in series [3] (setting [5]) turned out to be 589 nm. In addition, in series [3] (setting [5]), the “λf1 (nm)” value amounted to 601 nm. Besides, the Φf1 in series [3] (+ 10 eq Zn^2+ (ZnSO4), 0.1M HEPES (pH 7.4) containing 15% DMSO) came to 0.281; in series [3] (Zn^2+ not added, EDTA (100 μM) added) it was 0.062. The “Cell uptake and function as Zn^2+-detecting fluorescent probe” value in series [4] is “is taken into the cell and functions effectively as a Zn^2+-detecting fluorescent probe”.
